Key:
Design in all cases: scale not given here
ABUTH Velvetleaf [1] = assay: Preemergence herbicidal evaluation, ABUTH; type: in vivo, Abutilon theophrasti, Medic.; conditions: preemergence
Method in brief: (§1)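 Visual ratings were taken four to five weeks after application. Before that, cups sown with seed in potting soil received a spray of compound dissolved in aqueous acetone, equivalent to about 0.013 to 0.800 kg/ha, and stood on greenhouse benches under conventional care.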

CASOB Sicklepod [2] = assay: Postemergence herbicidal evaluation, CASOB; type: in vivo, Cassia obtusifolia, L.; conditions: postemergence spray, rated about two-three weeks after treatment
Method in brief: (§2)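 Seedlings grown about two weeks were sprayed with compound in 80/20 acetone/water containing 1.0% methylated seed oil, at the equivalent of about 0.006 to 0.400 kg/ha, through a nozzle at 40 psi. Plants were kept in the greenhouse and rated visually about two to three weeks after treatment.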

GLXMAW Soybean, Williams [3] = assay: Postemergence herbicidal evaluation, GLXMAW; type: in vivo, Glycine max, (L.) Merr. cv Williams; conditions: postemergence spray, rated about two-three weeks after treatment
Method in brief: as §2

ECHOG Barnyardgrass = assay: Preemergence herbicidal evaluation, ECHOG; type: in vivo, Echinochloa crus-galli, (L.) Beau; conditions: preemergence
Method in brief: as §1

ZEAMX Corn, Field = assay: Preemergence herbicidal evaluation, ZEAMX; type: in vivo, Zea mays, L. (Sammel-Bezeichnung); conditions: preemergence
Method in brief: as §1

ABUTH Velvetleaf [4] = assay: Postemergence herbicidal evaluation, ABUTH; type: in vivo, Abutilon theophrasti, Medic.; conditions: postemergence spray, rated about two-three weeks after treatment
Method in brief: as §2

CASOB Sicklepod [5] = assay: Preemergence herbicidal evaluation, CASOB; type: in vivo, Cassia obtusifolia, L.; conditions: preemergence
Method in brief: as §1

ORYSAT Rice, Tebonnet [6] = assay: Postemergence herbicidal evaluation, ORYSAT; type: in vivo, Oryza sativa, (L.); conditions: postemergence spray, rated about two-three weeks after treatment
Method in brief: as §2

GLXMAW Soybean, Williams [7] = assay: Preemergence herbicidal evaluation, GLXMAW; type: in vivo, Glycine max, (L.) Merr. cv Williams; conditions: preemergence
Method in brief: as §1

GALAP Galium [8] = assay: Preemergence herbicidal evaluation, GALAP; type: in vivo, Galium aparine; conditions: preemergence
Method in brief: as §1

GALAP Galium [9] = assay: Postemergence herbicidal evaluation, GALAP; type: in vivo, Galium aparine; conditions: postemergence spray, rated about two-three weeks after treatment
Method in brief: as §2

ORYSAT Rice, Tebonnet [10] = assay: Preemergence herbicidal evaluation, ORYSAT; type: in vivo, Oryza sativa, (L.); conditions: preemergence
Method in brief: as §1

## CCc1ccccc1-n1nnc2cc(F)c(-n3c(=O)cc(C(F)(F)F)n(C)c3=O)cc21 [Example 25]
ABUTH Velvetleaf [1]; rate 0.016 kg/ha
  ABUTH herbicidal rating: 3.0
ABUTH Velvetleaf [1]; rate 0.032 kg/ha
  ABUTH herbicidal rating: 6.0
ABUTH Velvetleaf [1]; rate 0.062 kg/ha
  ABUTH herbicidal rating: 6.0
ABUTH Velvetleaf [1]; rate 0.125 kg/ha
  ABUTH herbicidal rating: 9.0
CASOB Sicklepod [2]; 0.008 kg/ha
  Postemergence herbicidal rating CASOB: 0.0
CASOB Sicklepod [2]; 0.016 kg/ha
  Postemergence herbicidal rating CASOB: 0.0
CASOB Sicklepod [2]; 0.032 kg/ha
  Postemergence herbicidal rating CASOB: 0.0
CASOB Sicklepod [2]; 0.062 kg/ha
  Postemergence herbicidal rating CASOB: 1.0
GLXMAW Soybean, Williams [3]; 0.008 kg/ha
  Postemergence herbicidal rating GLXMAW: 3.0
GLXMAW Soybean, Williams [3]; 0.016 kg/ha
  Postemergence herbicidal rating GLXMAW: 4.5
GLXMAW Soybean, Williams [3]; 0.032 kg/ha
  Postemergence herbicidal rating GLXMAW: 5.0
GLXMAW Soybean, Williams [3]; 0.062 kg/ha
  Postemergence herbicidal rating GLXMAW: 6.5
ECHOG Barnyardgrass; rate 0.016 kg/ha
  ECHCG herbicidal rating: 0.0
ECHOG Barnyardgrass; rate 0.032 kg/ha
  ECHCG herbicidal rating: 0.0
ECHOG Barnyardgrass; rate 0.062 kg/ha
  ECHCG herbicidal rating: 2.0
ECHOG Barnyardgrass; rate 0.125 kg/ha
  ECHCG herbicidal rating: 8.0
ZEAMX Corn, Field; rate 0.016 kg/ha
  ZEAMX herbicidal rating: 0.0
ZEAMX Corn, Field; rate 0.032 kg/ha
  ZEAMX herbicidal rating: 0.0
ZEAMX Corn, Field; rate 0.062 kg/ha
  ZEAMX herbicidal rating: 2.0
ZEAMX Corn, Field; rate 0.125 kg/ha
  ZEAMX herbicidal rating: 4.0
ABUTH Velvetleaf [4]; 0.008 kg/ha
  Postemergence herbicidal rating ABUTH: 6.0
ABUTH Velvetleaf [4]; 0.016 kg/ha
  Postemergence herbicidal rating ABUTH: 8.0
ABUTH Velvetleaf [4]; 0.032 kg/ha
  Postemergence herbicidal rating ABUTH: 9.0
ABUTH Velvetleaf [4]; 0.062 kg/ha
  Postemergence herbicidal rating ABUTH: 9.0
CASOB Sicklepod [5]; rate 0.016 kg/ha
  CASOB herbicidal rating: 0.0
CASOB Sicklepod [5]; rate 0.032 kg/ha
  CASOB herbicidal rating: 0.0
CASOB Sicklepod [5]; rate 0.062 kg/ha
  CASOB herbicidal rating: 1.5
CASOB Sicklepod [5]; rate 0.125 kg/ha
  CASOB herbicidal rating: 2.0
ORYSAT Rice, Tebonnet [6]; 0.008 kg/ha
  Postemergence herbicidal rating ORYSAT: 0.5
ORYSAT Rice, Tebonnet [6]; 0.016 kg/ha
  Postemergence herbicidal rating ORYSAT: 1.0
ORYSAT Rice, Tebonnet [6]; 0.032 kg/ha
  Postemergence herbicidal rating ORYSAT: 1.5
ORYSAT Rice, Tebonnet [6]; 0.062 kg/ha
  Postemergence herbicidal rating ORYSAT: 2.0
GLXMAW Soybean, Williams [7]; rate 0.016 kg/ha
  GLXMAW herbicidal rating: 0.0
GLXMAW Soybean, Williams [7]; rate 0.032 kg/ha
  GLXMAW herbicidal rating: 0.0
GLXMAW Soybean, Williams [7]; rate 0.062 kg/ha
  GLXMAW herbicidal rating: 2.0
GLXMAW Soybean, Williams [7]; rate 0.125 kg/ha
  GLXMAW herbicidal rating: 1.5
GALAP Galium [8]; rate 0.016 kg/ha
  GALAP herbicidal rating: 0.0
GALAP Galium [8]; rate 0.032 kg/ha
  GALAP herbicidal rating: 0.0
GALAP Galium [8]; rate 0.062 kg/ha
  GALAP herbicidal rating: 0.0
GALAP Galium [8]; rate 0.125 kg/ha
  GALAP herbicidal rating: 0.0
GALAP Galium [9]; 0.008 kg/ha
  Postemergence herbicidal rating GALAP: 0.0
GALAP Galium [9]; 0.016 kg/ha
  Postemergence herbicidal rating GALAP: 0.0
GALAP Galium [9]; 0.032 kg/ha
  Postemergence herbicidal rating GALAP: 4.0
GALAP Galium [9]; 0.062 kg/ha
  Postemergence herbicidal rating GALAP: 4.0
ORYSAT Rice, Tebonnet [10]; rate 0.016 kg/ha
  ORYSAT herbicidal rating: 0.0
ORYSAT Rice, Tebonnet [10]; rate 0.032 kg/ha
  ORYSAT herbicidal rating: 0.0
ORYSAT Rice, Tebonnet [10]; rate 0.062 kg/ha
  ORYSAT herbicidal rating: 0.0
ORYSAT Rice, Tebonnet [10]; rate 0.125 kg/ha
  ORYSAT herbicidal rating: 1.5
